According to PubChem BioAssay (NCI):
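Results reflect a 48-hour exposure of cells in 96-well plates to compound at five concentrations. GI50 marks 50% less growth. TGI denotes the concentration required for complete inhibition of growth.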

How the values were obtained:
Test in all cases: DTP human tumour cell line panel, 48 h
SNB-75 CNS = test system: SNB-75 CNS
SK-OV-3 ovarian = test system: SK-OV-3 ovarian
A549 NSCLC = test system: A549 NSCLC
IGROV1 ovarian = test system: IGROV1 ovarian
OVCAR-5 ovarian = test system: OVCAR-5 ovarian
RPMI-8226 leukemia = test system: RPMI-8226 leukemia
A498 renal = test system: A498 renal
HCT-116 colon = test system: HCT-116 colon
SNB-19 CNS = test system: SNB-19 CNS
RXF 393 renal = test system: RXF 393 renal

Structure (SMILES) | TGI (SNB-75 CNS) [µM] | TGI (SK-OV-3 ovarian) [µM] | TGI (A549 NSCLC) [µM] | TGI (IGROV1 ovarian) [µM] | TGI (OVCAR-5 ovarian) [µM] | TGI (RPMI-8226 leukemia) [µM] | TGI (A498 renal) [µM] | TGI (HCT-116 colon) [µM] | TGI (SNB-19 CNS) [µM] | GI50 (SNB-75 CNS) [µM] | GI50 (SK-OV-3 ovarian) [µM] | GI50 (A549 NSCLC) [µM] | GI50 (IGROV1 ovarian) [µM] | GI50 (OVCAR-5 ovarian) [µM] | GI50 (RXF 393 renal) [µM] | TGI (RXF 393 renal) [µM] | GI50 (A498 renal) [µM] | GI50 (HCT-116 colon) [µM] | GI50 (SNB-19 CNS) [µM] | GI50 (RPMI-8226 leukemia) [µM]
O=c1[nH]c2ccc([N+](=O)[O-])c(Cl)c2c2ccccc12 | 56.7 | 4.86 | > 100 | 28.9 | 35.4 | 33.7 | 80.2 | > 100 | 10.5 | – | – | – | – | – | – | – | – | – | – | –
N#CC(NC(=O)CCl)=C(Cl)Cl | 4.27 | 16 | 13.8 | 2.92 | 3.47 | – | 3.88 | 3.7 | 3.17 | 1.63 | 5.05 | 3.51 | 1.18 | 1.96 | 1.27 | 2.64 | 1.86 | 1.02 | 1.67 | –
COc1cc2cc3c(c(O)c2c(O)c1-c1c(OC)cc2cc4c(c(O)c2c1O)C(=O)O[C@H](C)C4)C(=O)O[C@H](C)C3 | – | 84 | > 100 | – | > 100 | – | – | 43 | 99.2 | – | 26.5 | 39.3 | – | 94.2 | 24.4 | > 100 | – | 20.3 | 32.3 | –
Nc1ccc(C(=O)/C=C/c2ccccc2O)cc1 | > 100 | > 100 | > 100 | > 100 | > 100 | – | > 100 | > 100 | > 100 | – | – | – | – | – | – | > 100 | – | – | – | –
CCOc1ccc(Nc2nc(-c3c(C)nc4ncccn34)cs2)cc1 | – | 5.48 | 20.5 | 26.2 | 19 | 14.5 | 0.0678 | 11.6 | 23.5 | – | 0.017 | 0.0268 | 0.0797 | 0.0362 | – | – | < 0.01 | 0.0221 | 0.0538 | 0.0366
CN(C)c1ccc(C2CC(C)(O)Oc3cc4c(cc32)OCO4)cc1 (stereo not given) | 75.1 | > 100 | > 100 | > 100 | > 100 | 47.6 | – | > 100 | > 100 | – | – | – | – | – | – | > 100 | – | – | – | –
c1ccc2c3c([nH]c2c1)C1C2CCCCN2C(c2ccncc2)N1CC3 (stereo not given) | 89 | > 100 | > 100 | – | > 100 | 87.3 | – | > 100 | 65.3 | – | – | – | – | – | – | 83.4 | – | – | – | –
COc1cc(OC)cc(-c2ccc(-c3ccc(C(=N)N)cn3)s2)c1 | 2.86 | 26.2 | 4.69 | 3.73 | 3.13 | 5.51 | – | 3.64 | 3.59 | 1.44 | 11.3 | 2.19 | 1.9 | 1.69 | 1.83 | 3.34 | – | 1.9 | 1.8 | 2.46
C#Cc1cccc(NC(=O)C2CCCN(C(=O)CCl)C2)c1 (stereo not given) | > 82.5 | > 82.5 | > 82.5 | 33.3 | > 82.5 | > 82.5 | – | > 82.5 | > 82.5 | > 82.5 | > 82.5 | > 82.5 | 14.3 | > 82.5 | > 82.5 | > 82.5 | – | 45.9 | > 82.5 | > 82.5
COc1ccc(/C(C)=C(\c2ccc(Cl)cc2)c2ccc(OCCN3CCCCCC3)cc2)cc1F | 13.3 | 16.6 | > 16.7 | 9.34 | 8.18 | 9.92 | – | 4.51 | > 16.7 | 4.16 | 5.05 | 5.27 | 3.07 | 2.95 | 2.55 | 5.17 | – | 1.98 | 5.13 | 3.63
Nc1ncc(C2[C@H](CNC(=O)c3cc(Br)c[nH]3)C(CNC(=O)c3cc(Br)c[nH]3)[C@@H]2c2cnc(N)[nH]2)[nH]1 (stereo not given in full) | – | – | > 50 | > 50 | > 50 | > 50 | > 50 | > 50 | – | – | – | > 50 | > 50 | > 50 | – | – | > 50 | > 50 | – | > 50
O=C1CCS/C(=N/S(=O)(=O)c2ccc(N3N=C4c5ccccc5CC4C3c3cccs3)cc2)N1Cc1ccccc1 (stereo not given) | 78.7 | 79.6 | 35.8 | 52.4 | 44.9 | > 100 | – | 34.5 | 77.7 | 30.2 | 32.9 | 14.4 | 17.4 | 22.4 | 21.2 | 63.9 | – | 20.3 | 22.3 | 18.1
